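Test compounds were applied to cells in 96-well plates for 48 hours at 5 doses. Abbreviation: GI50, concentration required for 50% inhibition of growth.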 The source made the active and inactive calls. Rule as the data show it: active = GI50 up to about 1.1 µM and inactive = higher.
How the values were obtained:
Assay in all cases: NCI anticancer screen, dose series, 48 h
A498 = system: A498
DU-145 = system: DU-145
IGROV-1 = system: IGROV-1
MDA-MB-231 = system: MDA-MB-231
MDA-N = system: MDA-N
MOLT-4 = system: MOLT-4
Malme-3M = system: Malme-3M
NCI-H460 = system: NCI-H460
OVCAR-3 = system: OVCAR-3
PC-3 = system: PC-3
SF-295 = system: SF-295
SF-539 = system: SF-539
SK-MEL-28 = system: SK-MEL-28
SK-MEL-2 = system: SK-MEL-2
SN12C = system: SN12C
SNB-75 = system: SNB-75
SW-620 = system: SW-620
TK-10 = system: TK-10
UACC-257 = system: UACC-257
UACC-62 = system: UACC-62

SMILES	GI50 (A498)	GI50 (DU-145)	GI50 (IGROV-1)	GI50 (MDA-MB-231)	GI50 (MDA-N)	GI50 (MOLT-4)	GI50 (Malme-3M)	GI50 (NCI-H460)	GI50 (OVCAR-3)	GI50 (PC-3)	GI50 (SF-295)	GI50 (SF-539)	GI50 (SK-MEL-28)	GI50 (SK-MEL-2)	GI50 (SN12C)	GI50 (SNB-75)	GI50 (SW-620)	GI50 (TK-10)	GI50 (UACC-257)	GI50 (UACC-62)
O=c1ccn(CC2(CO)CCCC2)c(=O)[nH]1	7.64 µM (inactive)	> 100 µM (inactive)	> 100 µM (inactive)	> 100 µM (inactive)	> 100 µM (inactive)	> 100 µM (inactive)	> 100 µM (inactive)	> 100 µM (inactive)	> 100 µM (inactive)	> 100 µM (inactive)	> 100 µM (inactive)	> 100 µM (inactive)	> 100 µM (inactive)	> 100 µM (inactive)	> 100 µM (inactive)	> 100 µM (inactive)	> 100 µM (inactive)	> 100 µM (inactive)	> 100 µM (inactive)	> 100 µM (inactive)
COc1ccc(CC2C3=C(CCCC3)CCN2C)cc1 (stereo not given)	> 100 µM (inactive)	> 100 µM (inactive)	> 100 µM (inactive)	> 100 µM (inactive)	> 100 µM (inactive)	> 100 µM (inactive)	> 100 µM (inactive)	> 100 µM (inactive)	> 100 µM (inactive)	> 100 µM (inactive)	> 100 µM (inactive)	> 100 µM (inactive)	> 100 µM (inactive)	> 100 µM (inactive)	> 100 µM (inactive)	55.2 µM (inactive)	> 100 µM (inactive)	> 100 µM (inactive)	> 100 µM (inactive)	65.6 µM (inactive)
OCCOc1ccc(-c2cc(-c3ccccn3)nc(-c3ccccn3)c2)cc1	3.3 µM (inactive)	0.106 µM (active)	0.286 µM (active)	1.39 µM (inactive)	0.697 µM (active)	0.0767 µM (active)	0.309 µM (active)	0.0849 µM (active)	0.11 µM (active)	0.296 µM (active)	0.222 µM (active)	0.19 µM (active)	0.249 µM (active)	0.115 µM (active)	0.195 µM (active)	0.458 µM (active)	0.267 µM (active)	0.889 µM (active)	0.481 µM (active)	0.206 µM (active)
CC(C)=CCc1c2c(c3occ(-c4ccc(O)c(O)c4)c(=O)c3c1O)C=CC(C)(C)O2 [POMIFERIN]	15.3 µM (inactive)	3.47 µM (inactive)	2.11 µM (inactive)	1.39 µM (inactive)	1.7 µM (inactive)	0.553 µM (active)	1.14 µM (inactive)	1.64 µM (inactive)	1.66 µM (inactive)	1.61 µM (inactive)	3.77 µM (inactive)	1.91 µM (inactive)	2.51 µM (inactive)	2.6 µM (inactive)	1.58 µM (inactive)	3.61 µM (inactive)	0.714 µM (active)	1.6 µM (inactive)	1.91 µM (inactive)	3.85 µM (inactive)
Cc1cc2c(cc1C)[n+]([O-])c(C(F)(F)F)c(C(=O)c1ccccc1)[n+]2[O-]	4.44 µM (inactive)	1.62 µM (inactive)	1.37 µM (inactive)	2.3 µM (inactive)	3.35 µM (inactive)	1.69 µM (inactive)	2.39 µM (inactive)	1.26 µM (inactive)	0.227 µM (active)	2.09 µM (inactive)	2.4 µM (inactive)	5.07 µM (inactive)	4.52 µM (inactive)	4.89 µM (inactive)	2.74 µM (inactive)	3.32 µM (inactive)	3.72 µM (inactive)	3.3 µM (inactive)	3.02 µM (inactive)	2.22 µM (inactive)
Sc1nnc(Cc2ccc(Cl)cc2)[nH]1	57.4 µM (inactive)	67 µM (inactive)	44.5 µM (inactive)	42.3 µM (inactive)	> 100 µM (inactive)	50.2 µM (inactive)	29.1 µM (inactive)	50.8 µM (inactive)	> 100 µM (inactive)	49.1 µM (inactive)	43.7 µM (inactive)	66.4 µM (inactive)	> 100 µM (inactive)	> 100 µM (inactive)	78.2 µM (inactive)	33.2 µM (inactive)	85.5 µM (inactive)	66.2 µM (inactive)	60.5 µM (inactive)	66.7 µM (inactive)
CCN(CC)c1ccc(/C=C(\C#N)c2nc(N)nc(N3N=C(C)CC3(C)C)n2)cc1	16.2 µM (inactive)	9.64 µM (inactive)	7.82 µM (inactive)	13.6 µM (inactive)	24.1 µM (inactive)	10.7 µM (inactive)	18.2 µM (inactive)	18.3 µM (inactive)	17.5 µM (inactive)	37.2 µM (inactive)	16.6 µM (inactive)	6.89 µM (inactive)	36.1 µM (inactive)	15.6 µM (inactive)	27.3 µM (inactive)	10 µM (inactive)	55.6 µM (inactive)	14.8 µM (inactive)	45.2 µM (inactive)	30.3 µM (inactive)
Cc1c2cccc(Sc3ccccc3)c2c2c3c(cccc13)[S+](c1ccccc1)C2 (stereo not given)	2.65 µM (inactive)	3.78 µM (inactive)	2.34 µM (inactive)	2.16 µM (inactive)	2.28 µM (inactive)	1.65 µM (inactive)	1.8 µM (inactive)	1.58 µM (inactive)	0.659 µM (active)	2.06 µM (inactive)	1.78 µM (inactive)	2.63 µM (inactive)	2.58 µM (inactive)	1.5 µM (inactive)	2.24 µM (inactive)	1.94 µM (inactive)	3.26 µM (inactive)	2.67 µM (inactive)	0.594 µM (active)	1.66 µM (inactive)
O=c1cc(/N=N/c2ccc(O)cc2)[nH]c(=O)[nH]1	> 100 µM (inactive)	> 100 µM (inactive)	> 100 µM (inactive)	> 100 µM (inactive)	> 100 µM (inactive)	> 100 µM (inactive)	28.8 µM (inactive)	> 100 µM (inactive)	40.7 µM (inactive)	> 100 µM (inactive)	> 100 µM (inactive)	53.5 µM (inactive)	> 100 µM (inactive)	> 100 µM (inactive)	66.7 µM (inactive)	26.6 µM (inactive)	> 100 µM (inactive)	99.3 µM (inactive)	73.1 µM (inactive)	60.7 µM (inactive)
O=C1/C(=C/c2ccccc2)CCc2ccc(Cl)nc21	18.3 µM (inactive)	10 µM (inactive)	4.5 µM (inactive)	15.2 µM (inactive)	4 µM (inactive)	2.28 µM (inactive)	11 µM (inactive)	18.2 µM (inactive)	21.8 µM (inactive)	11.7 µM (inactive)	17.2 µM (inactive)	3.61 µM (inactive)	14.7 µM (inactive)	16.7 µM (inactive)	6.03 µM (inactive)	17.2 µM (inactive)	3.98 µM (inactive)	13.9 µM (inactive)	5.4 µM (inactive)	10.4 µM (inactive)

Reference: ChEMBL document CHEMBL1201862, “PubChem BioAssay data set” (2004)
